According to ChEMBL document CHEMBL1134234, “NO-independent stimulators of soluble guanylate cyclase” (Bioorg Med Chem Lett, 2001):
pIC50: −log10 of the molar value.

species on record: Oryctolagus cuniculus; assay: (§1) Ability to inhibit maximum constriction of phenylephrine-treated precontracted (3x10 -8 g/mL) rabbit aortic rings; format: functional, Aorta; details: not given

`OCc1ccc(-c2nn(Cc3ccccc3F)c3cccnc23)o1` showed an Inhibition of 27%.

species on record: Oryctolagus cuniculus; assay: as §1; format: functional; details: Aorta

Compared with `N#Cc1cccc(Cn2nc(-c3ccc(CO)o3)c3ccccc32)c1`, `OCc1ccc(-c2nn(Cc3cccc(F)c3)c3ccccc23)o1` is 0.41 log units higher in pIC50: 4.59 for the first, 5.00 for the second. The second is the more potent here.

Going from `Nc1nc(-c2nn(Cc3ccccc3F)c3ncccc23)ncc1C1CCCC1` to `Nc1nc(-c2nn(Cc3ccccc3F)c3ncccc23)ncc1C1CCCCC1`, the pIC50 falls from 6.04 to 3.25 (2.79 log units). The first is the more potent here.

First: OCc1ccc(-c2nn(Cc3cncnc3)c3ccccc23)o1
Second: OCc1ccc(-c2nn(Cc3cccnc3)c3ccccc23)o1
The pIC50 of the first is 0.47 log units higher: 5.49 for the first, 5.02 for the second.

First: Cc1oc(-c2nn(Cc3ccccc3F)c3ncccc23)nc1CO
Second: Cc1nc(-c2nn(Cc3ccccc3F)c3ncccc23)oc1CO
The pIC50 of the first is 0.23 log units lower: 5.82 for the first, 6.05 for the second. The second is the more potent here.

Compared with `OCc1ccc(-c2nn(Cc3ccccn3)c3ccccc23)o1`, `OCc1ccc(-c2nn(Cc3ccccc3)c3ccccc23)o1` is 0.20 log units higher in pIC50: 4.80 for the first, 5.00 for the second. The second is the more potent here.

Going from `Fc1ccccc1Cn1nc(-c2ccccn2)c2cccnc21` to `Fc1ccccc1Cn1nc(-c2ncccn2)c2cccnc21`, the pIC50 rises from 5.32 to 5.90 (0.58 log units).

Compared with `CCCCCc1cnc(-c2nn(Cc3ccccc3F)c3ncccc23)nc1N`, `CCCCCCc1cnc(-c2nn(Cc3ccccc3F)c3ncccc23)nc1N` is 2.28 log units higher in pIC50: 3.70 for the first, 5.98 for the second. The second is the more potent here.

First: N#Cc1ccccc1Cn1nc(-c2ccc(CO)o2)c2ccccc21
Second: OCc1ccc(-c2nn(Cc3ccccc3F)c3ccccc23)o1
The pIC50 of the first is 0.25 log units lower: 5.06 for the first, 5.31 for the second.

Compared with `CC(C)(C)c1cnc(-c2nn(Cc3ccccc3F)c3ncccc23)nc1N`, `Cc1cnc(-c2nn(Cc3ccccc3F)c3ncccc23)nc1N` is 2.98 log units lower in pIC50: 6.15 for the first, 3.17 for the second.

`OCc1ccnc(-c2nn(Cc3ccccc3F)c3ncccc23)n1` and `NCc1cnc(-c2nn(Cc3ccccc3F)c3ncccc23)nc1N` are within 0.2 log units of each other in pIC50: 5.89 for the first, 5.85 for the second.

`N#CCCc1cnc(-c2nn(Cc3ccccc3F)c3ncccc23)nc1N` and `N#CCCCCCc1cnc(-c2nn(Cc3ccccc3F)c3ncccc23)nc1N` are within 0.2 log units of each other in pIC50: 3.39 for the first, 3.23 for the second.

`CC(C)c1cnc(-c2nn(Cc3ccccc3F)c3ncccc23)nc1N` and `CSc1cnc(-c2nn(Cc3ccccc3F)c3ncccc23)nc1N` are within 0.2 log units of each other in pIC50: 3.68 for the first, 3.61 for the second.

`CCOP(=O)(OCC)c1cnc(-c2nn(Cc3ccccc3F)c3ncccc23)nc1N` and `CCc1cnc(-c2nn(Cc3ccccc3F)c3ncccc23)nc1N` are within 0.2 log units of each other in pIC50: 3.38 for the first, 3.57 for the second.

Going from `Cc1coc(-c2nn(Cc3ccccc3F)c3ncccc23)n1` to `Cc1cc(N)nc(-c2nn(Cc3ccccc3F)c3ncccc23)n1`, the pIC50 falls from 5.92 to 3.27 (2.65 log units).

Compared with `CCc1c[nH]c(-c2nn(Cc3ccccc3F)c3ncccc23)n1`, `Fc1ccccc1Cn1nc(-c2nn[nH]n2)c2cccnc21` is 1.15 log units lower in pIC50: 6.22 for the first, 5.07 for the second. The first is the more potent here.

Going from `OCc1ccc(-c2nn(Cc3ccc(Cl)s3)c3ccccc23)o1` to `OCc1ccc(-c2nn(Cc3ccc(F)cc3)c3ccccc23)o1`, the pIC50 falls from 5.14 to 4.72 (0.42 log units).

`N#Cc1cnc(-c2nn(Cc3ccccc3F)c3ncccc23)nc1N` and `Nc1nc(-c2nn(Cc3ccccc3F)c3ncccc23)ncc1F` are within 0.2 log units of each other in pIC50: 3.41 for the first, 3.32 for the second.

`COc1cnc(-c2nn(Cc3ccccc3F)c3ncccc23)nc1N` and `CCCc1cnc(-c2nn(Cc3ccccc3F)c3ncccc23)nc1N` are within 0.2 log units of each other in pIC50: 3.46 for the first, 3.60 for the second.

First: OCc1ccc(-c2nn(Cc3ccccc3F)c3cccnc23)o1
Second: OCc1ccc(-c2nn(Cc3ccccc3F)c3ncccc23)o1
The pIC50 of the first is 1.08 log units lower: 4.69 for the first, 5.77 for the second. The second is the more potent here.

First: Nc1nc(-c2nn(Cc3ccccc3F)c3ncccc23)ncc1C1CCC1
Second: Nc1nc(-c2nn(Cc3ccccc3F)c3ncccc23)ncc1C1CC1
The pIC50 of the first is 0.32 log units lower: 3.20 for the first, 3.52 for the second. The second is the more potent here.

First: Fc1ccccc1Cn1nc(C2=NCCN2)c2cccnc21
Second: Fc1ccccc1Cn1nc(-c2cc[nH]n2)c2cccnc21
The pIC50 of the first is 0.25 log units lower: 5.49 for the first, 5.74 for the second.

Going from `CC(C)S(=O)(=O)c1cnc(-c2nn(Cc3ccccc3F)c3ncccc23)nc1N` to `CS(=O)(=O)c1cnc(-c2nn(Cc3ccccc3F)c3ncccc23)nc1N`, the pIC50 rises from 3.29 to 3.58 (0.29 log units). The second is the more potent here.

Going from `Nc1nc(-c2nn(Cc3ccccc3F)c3ncccc23)ncc1N1CCSCC1` to `Nc1nc(-c2nn(Cc3ccccc3F)c3ncccc23)ncc1N1CCOCC1`, the pIC50 rises from 3.19 to 3.51 (0.32 log units). The second is the more potent here.

Going from `CCCCc1cnc(-c2nn(Cc3ccccc3F)c3ncccc23)nc1N` to `CC(C#N)CCCCCc1cnc(-c2nn(Cc3ccccc3F)c3ncccc23)nc1N` (centres undefined), the pIC50 falls from 3.66 to 2.89 (0.77 log units).

`CCCS(=O)(=O)c1cnc(-c2nn(Cc3ccccc3F)c3ncccc23)nc1N` and `Nc1nc(-c2nn(Cc3ccccc3F)c3ncccc23)ncc1CC(F)(F)F` are within 0.2 log units of each other in pIC50: 3.42 for the first, 3.29 for the second.

`OCc1ccc(-c2nn(Cc3ccccc3F)c3cnccc23)o1` and `OCc1ccc(-c2nn(Cc3ccccc3F)c3ccncc23)o1` are within 0.2 log units of each other in pIC50: 5.16 for the first, 5.01 for the second.

`NS(=O)(=O)c1ccc(-c2nn(Cc3ccccc3F)c3ncccc23)o1` and `Fc1ccccc1Cn1nc(-c2ccco2)c2cccnc21` are within 0.2 log units of each other in pIC50: 5.10 for the first, 5.03 for the second.

Going from `OCc1ccc(-c2nn(Cc3ccccc3F)c3ncncc23)o1` to `OCc1ccc(-c2nn(Cc3c(F)cccc3F)c3ccccc23)o1`, the pIC50 falls from 5.03 to 4.82 (0.21 log units). The first is the more potent here.

Compared with `Nc1nc(-c2nn(Cc3ccccc3F)c3ncccc23)ncc1C1=CCCC1`, `Nc1nc(-c2nn(Cc3ccccc3F)c3ncccc23)nc(N)c1C1CC1` is 2.45 log units lower in pIC50: 6.08 for the first, 3.63 for the second. The first is the more potent here.
